In patent publication US11859205B2, “Medium for culturing stem cells” (AJINOMOTO CO., INC., priority 2013, dated 2024):

How the values were obtained:
[1] = system: iPS cells; test: Viable iPS cell number with purified albumin re-carrying fatty acid (Example 4, FIG. 4); assay type: cell-based, human; details: fatty acid re-adsorbed to albumin, 1 week
Protocol: Proliferative effect of various test compounds on induced pluripotent stem cell (iPS cell) was evaluated. As the iPS cell, 201B7 strain purchased from iPS Academia Japan, Inc. was used. Cell culture was performed under conditions of 5% CO2/37° C. and using a culture vessel (Nippon Becton Dickinson Company, Ltd., Falconculture petri dish or Falconculture plate) coated with a basal membrane matrix.
Various test compounds were added at given concentrations to a medium of “E8” composition (disclosed in Nature Methods, 2011, 8, 424-429, which is incorporated herein by reference in its entirety) currently considered to be the minimum composition for cultivating human pluripotent stem cells, and used for culture, from which the effect was studied.
The solution was shaken at 37° C. for 7 hours, left standing at 4° C. overnight, and filtered with a 0.22 μm syringe filter. […] The mixture was added to a medium such that the final concentration of albumin was 2.6 g/L.
The final concentration in and the amount of addition to the medium are also the same.
Using the medium produced as mentioned above, the influence of each fatty acid on the proliferation of iPS cells was studied. A 6-well plate coated with a fragment containing an active domain of laminin 511 at 5 μg/well (iMatrix-511 (Nippi, Incorporated)) as a basal membrane matrix was used. iPS cells were single-cell seeded at 13,000 cells/well and cultured for 1 week. Y-27632 (NACALAI TESQUE, INC.: 08945-84) was added at a final concentration of 10 μM only to a medium to be used for seeding. As a positive control, iPS cells were cultured using an albumin free of re-adsorption of fatty acid, i.e., albumin after a fatty acid removal treatment.
The cells were detached from each well by TrypLE Select (Life Technologies: 12563-011), and the number of the viable cells was measured.

[2] = system: stem cells; details: WO 2013/006675; cited from earlier work
[3] = final concentration in medium 28 μM
[4] = final concentration in medium 57 μM

SMILES	effect on proliferation of iPS cells (number of viable cells) [1, 3]	effect on proliferation of iPS cells (number of viable cells) [1, 4]	effect on culture of stem cells [2]
CCCCC/C=C\C/C=C\C/C=C\C/C=C\CCCC(=O)O [arachidonic acid]	the cells died	the cells died	–
CCCCC/C=C\C/C=C\CCCCCCCC(=O)O [linoleic acid]	markedly suppressed	the cells died	–
CCCCCCCC(=O)O [octanoic acid]	–	–	harmful
CCCCCCCC/C=C\CCCCCCCC(=O)O [oleic acid]	smaller than that of the positive control	smaller than that of the positive control	–
CCCCCCCCCCCCCCCC(=O)O [palmitic acid]	the cells died	the cells died	–
CCCCCCCCCCCCCCCCCC(=O)O [stearic acid]	the cells died	the cells died	–
